Experimental data reported in ChEMBL document CHEMBL5131485, “Synthesis and biological activity evaluation of novel 2,6,9-trisubstituted purine conjugates as potential protein kinases inhibitors” (Bioorg Med Chem Lett, 2022).
Calls of active or inactive are those of the source. The calls are words filed in the database; no cut-off is given here.

Assays:
EOL1 = test: cells; settings: Homo sapiens
Description: Antiproliferative activity against human EOL1 cells expressing IP1L1-PDGFRA fusion protein

[1] = molecular target: Platelet-derived growth factor receptor alpha (Homo sapiens, UniProt P16234)
Description: Inhibition of PDGFRalpha (unknown origin)

[2] = molecular target: Cyclin-dependent kinase 2 (Homo sapiens, UniProt P24941)
Description: Inhibition of CDK2 (unknown origin)

K562 = test: cells; settings: Homo sapiens
Description: Antiproliferative activity against human K562 cells

[3] = molecular target: Receptor-type tyrosine-protein kinase FLT3 (Homo sapiens, UniProt P36888, ITD)
Description: Inhibition of FLT3 ITD mutant (unknown origin)

[4] = tested on: Receptor-type tyrosine-protein kinase FLT3 (Homo sapiens), P36888 [UNDEFINED MUTATION]; settings: MV4-11, dose 5-25 nM, time 1.0 hrs
MV4-11 [5] = test: cells; settings: Homo sapiens
Description: Antiproliferative activity against human MV4-11 cells expressing FLT3-ITD mutant

Kasumi 1 = test: cells; settings: Homo sapiens
Description: Antiproliferative activity against human Kasumi 1 cells harboring N822K KIT mutant

[6] = tested on: Receptor-type tyrosine-protein kinase FLT3 (Homo sapiens), P36888 [UNDEFINED MUTATION]; settings: MV4-11, dose 5-25 nM, time 1.0 hrs; remark: listed apart in the source
[7] = tested on: Receptor-type tyrosine-protein kinase FLT3 (Homo sapiens), P36888 [UNDEFINED MUTATION]; settings: MV4-11, dose 5-25 nM, time 1.0 hrs; remark: listed apart in the source
MV4-11 [8] = assay type: functional, cell-based; settings: Homo sapiens, dose 1-125 nM, time 24.0 hrs

Sequence of Receptor-type tyrosine-protein kinase FLT3 (Homo sapiens), P36888 [UNDEFINED MUTATION] (P36888 whole entry, looked up, change not shown): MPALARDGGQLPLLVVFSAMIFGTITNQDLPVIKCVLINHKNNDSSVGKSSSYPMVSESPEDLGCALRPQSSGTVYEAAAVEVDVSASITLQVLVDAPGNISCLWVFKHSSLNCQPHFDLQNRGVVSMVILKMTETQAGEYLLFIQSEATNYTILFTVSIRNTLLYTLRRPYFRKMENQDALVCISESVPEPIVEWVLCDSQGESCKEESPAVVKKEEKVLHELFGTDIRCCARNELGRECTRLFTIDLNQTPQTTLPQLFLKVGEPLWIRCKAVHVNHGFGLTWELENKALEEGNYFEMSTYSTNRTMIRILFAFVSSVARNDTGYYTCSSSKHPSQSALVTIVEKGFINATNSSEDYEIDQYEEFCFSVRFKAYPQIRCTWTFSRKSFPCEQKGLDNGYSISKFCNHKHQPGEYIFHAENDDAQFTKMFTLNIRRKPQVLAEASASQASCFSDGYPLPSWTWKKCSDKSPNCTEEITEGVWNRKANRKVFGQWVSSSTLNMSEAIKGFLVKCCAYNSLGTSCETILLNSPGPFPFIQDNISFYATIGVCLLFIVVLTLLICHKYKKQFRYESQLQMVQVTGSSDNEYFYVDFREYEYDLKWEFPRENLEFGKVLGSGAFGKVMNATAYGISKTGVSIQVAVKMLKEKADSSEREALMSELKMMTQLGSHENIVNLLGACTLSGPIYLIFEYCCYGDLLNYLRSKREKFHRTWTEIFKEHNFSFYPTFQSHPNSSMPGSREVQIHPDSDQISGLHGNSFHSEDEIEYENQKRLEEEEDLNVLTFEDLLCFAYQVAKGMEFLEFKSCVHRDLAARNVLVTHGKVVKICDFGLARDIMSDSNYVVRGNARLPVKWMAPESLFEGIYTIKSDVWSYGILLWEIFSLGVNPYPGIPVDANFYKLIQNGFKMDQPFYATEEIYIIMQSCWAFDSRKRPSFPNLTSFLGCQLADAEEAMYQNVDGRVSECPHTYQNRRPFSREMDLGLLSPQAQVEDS
Sequence of Receptor-type tyrosine-protein kinase FLT3 (P36888 whole entry, looked up, change not shown): as above
Sequence of Platelet-derived growth factor receptor alpha (P16234 whole entry): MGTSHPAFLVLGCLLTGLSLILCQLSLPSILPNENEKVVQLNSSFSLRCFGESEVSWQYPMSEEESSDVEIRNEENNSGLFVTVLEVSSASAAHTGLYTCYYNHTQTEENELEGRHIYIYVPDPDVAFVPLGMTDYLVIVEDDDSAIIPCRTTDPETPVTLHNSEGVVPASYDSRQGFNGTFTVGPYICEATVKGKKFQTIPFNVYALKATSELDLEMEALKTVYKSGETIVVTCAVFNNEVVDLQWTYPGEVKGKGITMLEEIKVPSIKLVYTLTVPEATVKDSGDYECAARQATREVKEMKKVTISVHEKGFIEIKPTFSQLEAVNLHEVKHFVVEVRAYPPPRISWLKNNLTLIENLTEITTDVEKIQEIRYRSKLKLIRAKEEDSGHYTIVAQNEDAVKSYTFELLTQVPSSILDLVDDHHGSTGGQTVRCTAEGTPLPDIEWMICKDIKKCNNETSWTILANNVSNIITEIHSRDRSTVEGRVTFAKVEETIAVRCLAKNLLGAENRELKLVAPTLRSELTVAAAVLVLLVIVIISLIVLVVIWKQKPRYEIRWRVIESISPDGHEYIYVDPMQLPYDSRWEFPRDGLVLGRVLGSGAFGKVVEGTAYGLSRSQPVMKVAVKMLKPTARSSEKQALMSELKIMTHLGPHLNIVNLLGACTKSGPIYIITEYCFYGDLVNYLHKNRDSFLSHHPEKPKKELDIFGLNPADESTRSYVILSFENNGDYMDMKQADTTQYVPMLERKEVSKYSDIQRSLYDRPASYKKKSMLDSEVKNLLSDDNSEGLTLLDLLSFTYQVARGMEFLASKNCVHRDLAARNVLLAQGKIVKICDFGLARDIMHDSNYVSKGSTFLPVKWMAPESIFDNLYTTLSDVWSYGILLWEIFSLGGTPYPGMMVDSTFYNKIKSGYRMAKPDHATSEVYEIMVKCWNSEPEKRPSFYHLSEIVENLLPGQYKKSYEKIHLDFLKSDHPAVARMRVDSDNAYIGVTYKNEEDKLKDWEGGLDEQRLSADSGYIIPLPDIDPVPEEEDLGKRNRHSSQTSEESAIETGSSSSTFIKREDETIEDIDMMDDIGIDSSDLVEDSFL

SMILES | GI50 (EOL1) [nM] | IC50 [1] [nM] | IC50 [2] [nM] | GI50 (K562) [nM] | IC50 [3] [nM] | inhibition [4] | GI50 (MV4-11 [5]) [nM] | GI50 (Kasumi 1) [nM] | inhibition [6] | inhibition [7] | Activity (MV4-11 [8])
NCCCCNC(=O)c1ccc(CNc2nc(N[C@H]3CC[C@H](N)CC3)nc3c2ncn3C2CCCC2)cc1 | 676 | > 20000 | 27 | 8260 | 1650 | Active | 577 | 2560 | – | – | –
NCCCNCCCCNc1ccc(Nc2nc(N[C@H]3CC[C@H](N)CC3)nc3c2ncn3C2CCCC2)cc1 | 60 | 219 | 21 | 2780 | 6 | Active | 52 | 1850 | Active | Active | Active
N[C@H]1CC[C@H](Nc2nc(Nc3ccccc3)c3ncn(C4CCCC4)c3n2)CC1 | 41 | 196 | 7 | 2450 | 5 | Active | 23 | 278 | Active | Active | Active
NC(=O)c1ccc(Nc2nc(N[C@H]3CC[C@H](N)CC3)nc3c2ncn3C2CCCC2)cc1 | 40 | 17 | 4 | 6130 | 2 | Active | 39 | 4180 | Active | Active | Active
NCCCCNc1ccc(Nc2nc(N[C@H]3CC[C@H](N)CC3)nc3c2ncn3C2CCCC2)cc1 | 171 | 153 | 17 | 6300 | 4 | Active | 95 | 2740 | Active | Active | Active
NCCCNCCCCNCCCNc1ccc(Nc2nc(N[C@H]3CC[C@H](N)CC3)nc3c2ncn3C2CCCC2)cc1 | 11 | 203 | 31 | 896 | 10 | Active | 4 | 647 | Active | Active | –
NCCCCNC(=O)c1ccc(Nc2nc(N[C@H]3CC[C@H](N)CC3)nc3c2ncn3C2CCCC2)cc1 | 15 | 36 | 20 | 10800 | 3 | Active | 23 | 4050 | Active | Active | Active
NCCCNCCCCNC(=O)c1ccc(CNc2nc(N[C@H]3CC[C@H](N)CC3)nc3c2ncn3C2CCCC2)cc1 | 799 | 19800 | 25 | 7190 | 1310 | Active | 602 | 1920 | – | – | –
N[C@H]1CC[C@H](Nc2nc(NCc3ccccc3)c3ncn(C4CCCC4)c3n2)CC1 | 1170 | > 20000 | – | 4220 | 2510 | Active | 1140 | 988 | – | – | –
NCCCNCCCCNC(=O)c1ccc(Nc2nc(N[C@H]3CC[C@H](N)CC3)nc3c2ncn3C2CCCC2)cc1 | 17 | 41 | 19 | 7370 | 4 | Active | 25 | 2910 | Active | Active | Active
